From patent publication US10761085B2, “Method for determining a protein-protein interaction” (MEDICAL & BIOLOGICAL LABORATORIES CO., LTD., priority 2014, dated 2020) come the findings set out here.

In test [1] the test system is calmodulin and M13 peptide tetramer formation (H1 receptor, calcium ion). To be noted: 100 μM. Here is the method: To express the fusion proteins in a combination of the following (A) or (B), the plasmid vectors prepared above were introduced into HeLaS3 cells by a method described below: • (A) Calumodulin-mAG1 and M13peptide-PB1; and • (B) Calumodulin-mUkG1 and M13peptide-PB1.
First, HeLaS3 cells were cultured in DMEM (low glucose) containing 10% FBS (manufactured by Equitech-Bio Inc.). Then, on the day before the transfection, the HeLaS3 cells were seeded onto a 35-mm glass base dish (manufactured by Asahi Glass Co., Ltd.). Subsequently, at the time of the transfection, the plasmids (1 μg+1 μg) were diluted with OptiMEM, and 10 μl of PolyFect(registered trademark) Transfection Reagent was added thereto and stirred. The resultant was further mixed with 600 μl of the culture solution, thereafter added to the HeLaS3 cells, and cultured for 22 hours.
Then, 100 μM histamine (manufactured by Wako Pure Chemical Industries, Ltd.) was added thereto, and fluorescence images were captured over time.

Test [2] has as its system homodimer formation of STAT3. The test can be described thus: Fluorescent focus detection of STAT3 homodimer formation after IL-6, HEK293 cells constitutively expressing PB1-mAG1-STAT3 (Example 12). The format is cell-based. Conditions: 100 ng/ml, 50 minutes; none before addition. Here is the method: HEK293 cells were selected as cells into which the expression vector prepared above was introduced. The cells were first cultured in DMEM (high glucose) supplemented with 10% FBS and 1% penicillin-streptomycin. Then, on the day before the introduction of the expression vector, these cells were seeded onto a 35-mm dish, and cultured in 1.5 ml of the culture solution. […] Thereafter, the mixture solution of the expression vector was added to the cultured cells. After that, G418 was added thereto at a concentration of 500 μg/mL, and further cultured for one week. Next, viable cells were detached using a trypsin solution, diluted with a culture solution containing G418 (500 μg/ml), and then cultured in a 96-well plate at 0.5 cells/well. Subsequently, cells which formed single colonies were cultured to expand.
Then, the cells were observed using an IX-71 inverted fluorescence microscope (the magnification of the objective lens: 20×), a U-MGFPHQ filter, and an ORCA-ER digital camera. The homodimer formation of STAT3 was induced by adding Human Recombinant IL-6 (manufactured by R&D SYSTEMS, INC.) to the buffer to the final concentration of 100 ng/ml.

Test [3] relates to homodimer formation of ERK2. As to the kind of experiment: Fluorescent focus detection of ERK2 homodimer formation after EGF, serum-starved HEK293 cells (Example 11). The format is cell-based. Here is the method:
HEK293 cells were selected as cells into which the expression vectors prepared above were introduced. The cells were first cultured in DMEM (high glucose) supplemented with 10% FBS (manufactured by Equitech-Bio Inc.) and 1% penicillin-streptomycin. Then, on the day before the introduction of the expression vectors, these cells were seeded onto a 35-mm dish, and cultured in 1.5 ml of the culture solution. […] Thereafter, each solution of the expression vectors was added to the cultured cells. The pERK2-hmAG1PB1 transfected cells were observed 20 hours after the vector introduction. To the pERK2-PB1-hmAG1 transfected cells, G418 was added at a concentration of 500 μg/mL, and further cultured for one week. After that, viable cells were detached using a trypsin solution, diluted with a culture solution containing G418 (500 μg/ml), and then cultured in a 96-well plate at 0.5 cells/well. Subsequently, cells which formed single colonies were cultured to expand.
Then, the cells were observed using an IX-71 inverted fluorescence microscope (the magnification of the objective lens: 20×), a U-MGFPHQ filter, and an ORCA-ER digital camera. The homodimer formation of ERK2 was induced by adding EGF (epidermal growth factor, manufactured by Sigma-Aldrich Co.) to the buffer to the final concentration of 50 ng/ml. FIGS. 26 and 27 show images before the EGF addition and 8 minutes after the addition.

Test [4] addresses T1, FKBP12 mutant homodimer formation (Homo sapiens, UniProt P62942, F37V).
T1 construct: expressed in transfected cells; host or cells: HEK293
The test can be described thus: Fluorescent focus detection of FKBP12 mutant homodimer formation, PB1-mAG1-FKBP12 mutant transiently expressed in HEK293 cells (Example 1). Type of test: cell-based. Conditions: 500 nM. Here is the method:
Next, the pPB1-hmAG1-FKBP12 mutant prepared as described above was introduced into HEK293 cells, and the fusion protein according to the present invention was expressed in the cells. Specifically, first, HEK293 cells were cultured in DMEM (high glucose, manufactured by SIGMA ALDRICH CO.) supplemented with 10% FBS (manufactured by Equitech-Bio Inc.) and 1% penicillin-streptomycin (manufactured by Life Technologies Corporation). Then, on the day before the transfection, the HEK293 cells cultured in this manner were seeded onto an 8-well chamber slide (manufactured by Nunc A/S), and cultured in 200 μL of the culture solution per well. Subsequently, 100 ng of the pPB1-hmAG1-FKBP12 mutant was diluted with 10 μL of OptiMEM (manufactured by Life Technologies Corporation), and 0.4 μL of Turbofect Transfection Reagent (manufactured by Thermo Fisher Scientific Inc.) was added thereto and then stirred. Thereafter, the resultant was further mixed with 100 μL of the culture solution, then added to the HEK293 cells, and cultured for 20 hours.
After the transfection treatment, the HEK293 cells were observed using an IX-71 inverted fluorescence microscope (manufactured by Olympus Corporation, the magnification of the objective lens: 20×), a U-MGFPHQ filter (manufactured by Olympus Corporation), and an ORCA-ER digital camera (manufactured by Hamamatsu Photonics K. K.). […]
Target sequence in this assay (P62942 whole entry F37V): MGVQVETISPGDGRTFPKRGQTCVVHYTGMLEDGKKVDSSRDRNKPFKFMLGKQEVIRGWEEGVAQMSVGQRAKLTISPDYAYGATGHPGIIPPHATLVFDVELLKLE

The target of test [5] is T1, FKBP12 mutant homodimer formation. As to the kind of experiment: Comparative Example 1: method of PTL 4 (PB1-FKBP12 mutant and AG-FKBP12 mutant) for FKBP12 mutant homodimer formation in HEK293 cells. Type of test: cell-based. Conditions: method of PTL 4, 66 minutes after the drug addition. Here is the method: In the detection system described in PTL 4, the PB1 domain of the p62 protein was selected as the association-inducing protein. Moreover, AG was selected as the fluorescent multimerizable protein, and a DNA encoding humanized-codon AG (hAG) was used.
Further, an expression vector (pPB1-FKBP12 mutant) encoding a fusion protein composed of the FKBP12 mutant fused to the C-terminus of the PB1 domain of the p62 protein was prepared as follows. Specifically, a DNA having the nucleotide sequence of SEQ ID NO: 31 was artificially synthesized which contained restriction enzyme sites at either end of a DNA having a nucleotide sequence encoding the FKBP12 mutant (the DNA encoding a protein having the amino acid sequence of SEQ ID NO: 32). Then, the obtained synthetic DNA was cleaved with EcoRI and XhoI, and inserted into pAsh-MCLinker (manufactured by MEDICAL & BIOLOGICAL LABORATORIES CO., LTD.) having been treated with a combination of the same restriction enzymes. Thus, a pPB1-FKBP12 mutant was constructed. […]
Further, 100 ng of each of the expression vectors thus constructed was mixed, that is, 200 ng of these were mixed in total, and fluorescent foci in cells before and after the drug addition were detected according to the same methods as <Cell Culturing and Transfection> and <Observation of Cells> described in Example 1.
Target sequence in this assay (P62942 2-108 F37V limits assumed): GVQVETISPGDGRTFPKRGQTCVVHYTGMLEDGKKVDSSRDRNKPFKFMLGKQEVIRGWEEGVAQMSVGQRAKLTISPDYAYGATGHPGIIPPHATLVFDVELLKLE

For test [6] the target is unchanged. As to the kind of experiment: FKBP12 mutant homodimer formation with SAM domain of Tankyrase 1 as multimerizable protein, HEK293 cells (Example 9). The format is cell-based. Conditions: 500 nM, 3 hours, room temperature; Tankyrase-mAG1-FKBP12 mutant. Here is the method:
HEK293 cells were cultured in DMEM (high glucose) supplemented with 10% FBS and 1% penicillin-streptomycin. Then, on the day before the transfection, the cells were seeded onto an 8-well chamber slide. The cells were cultured in 200 μL of the culture solution per well. Subsequently, a DNA solution was prepared by mixing 200 ng of the plasmid with 10 μL of OptiMEM, and 0.8 μl of Fugene HD (manufactured by Promega Corporation) was added thereto and then stirred. The resultant was further mixed with 100 μl of the culture solution, then added to the HEK293 cells, and cultured for 20 hours.
After the transfection treatment, the HEK293 cells were observed using an IX-81 inverted microscope and an ORCA-Flash 4.0 digital camera. A U-MNIBA3 filter was used for the observation. The homodimer formation of the FKBP12 mutant was induced by adding 500 nM B/B Homodimerizer to the medium. In addition, after the drug was added, the resultant was left standing at room temperature. The cells were observed after 3 hours elapsed.
Target sequence in this assay (P62942 2-108 F37V limits assumed): as above

The target is the same in test [7]. The test can be described thus: Reversible FKBP12 mutant homodimer formation in HEK293 cells constitutively expressing PB1-hmAG1-FKBP12 mutant, spot detection image analysis (Example 2). The format is cell-based. Here is the method: The pPB1-hmAG1-FKBP12 mutant was introduced into HEK293 cells, and cells constitutively expressing the fusion protein according to the present invention (PB1-hmAG1-FKBP12 mutant) were prepared. Specifically, on the day before the introduction of the expression vector, HEK293 cells were seeded onto a 35-mm dish (manufactured by BD Falcon), and cultured in 1.5 mL of the culture solution. Then, 1 μg of the pPB1-hmAG1-FKBP12 mutant was diluted with 100 μL of OptiMEM (manufactured by Life Technologies Corporation), and 10 μL of PolyFect (registered trademark) Transfection Reagent (manufactured by QIAGEN N.V.) was added thereto and then stirred. […] Thereafter, G418 was added thereto at a concentration of 500 μg/mL, and further cultured for one week. After that, viable cells were detached using a trypsin solution, diluted with a culture solution containing G418 (500 μg/ml), and then cultured in a 96-well plate at 0.5 cells/well. […]
The images captured over time by the above method were analyzed using spot detection (spot detector) of an icy image analysis program (icy.bioimageanalysis.org/). Moreover, from the images, a graph was created in which the X axis represents the operation time (minutes), and the Y axis represents a numerical value of a total fluorescence intensity in regions of the fluorescent foci within boxes drawn around the regions by lines.
Target sequence in this assay (P62942 whole entry F37V): as the sequence (P62942 whole entry F37V) above

For test [8] the target is unchanged. As to the kind of experiment: FKBP12 mutant homodimer formation with DG1 or mCherry as fluorescent protein, HEK293 cells (Example 8). The format is cell-based. To be noted: 500 nM, 1, 2 and 3 hours, room temperature; PB1-DG1-FKBP12 mutant and PB1-mCherry-FKBP12 mutant. The source says: To express the PB1-hDG1-FKBP12 mutant or the PB1-mCherry-FKBP12 mutant in cells, the vectors encoding these fusion proteins were introduced into HEK293 cells by the same method as that described in Example 4.
After the transfection treatment, the HEK293 cells were observed using an IX-81 inverted microscope and an ORCA-Flash 4.0 digital camera. A U-MNIBA3 filter (manufactured by Olympus Corporation) and a U-MWIG3 filter (manufactured by Olympus Corporation) were used respectively for the DG1 and mCherry observations. The homodimer formation of the FKBP12 mutant was induced by adding 500 nM B/B Homodimerizer. After the drug addition, the resultant was left standing at room temperature. The cells were observed after 1, 2, and 3 hours elapsed. FIGS. 22 and 23 show images before the drug addition and 1, 2, and 3 hours after the addition.
Target sequence in this assay (P62942 2-108 F37V limits assumed): as the sequence (P62942 2-108 F37V limits assumed) above

For the compound `NCCc1c[nH]cn1` [histamine], the fluorescent focus formation result in test [1] (60 seconds after the ligand was added, Calmodulin-mAG1 or Calmodulin-mUkG1 with M13peptide-PB1) was “fluorescent focus formation was detected”. The “extinction of fluorescent foci” value in test [1] (300 seconds after the ligand addition (FIG. 35)) is listed as “the fluorescent foci (assemblies) were extinguished”.
Turning to “IL-6: Human Recombinant IL-6, manufactured by R&D SYSTEMS, INC.”, in test [2], the fluorescent focus formation result is “fluorescent foci were observed in multiple cells”.
In the case of “EGF: epidermal growth factor, manufactured by Sigma-Aldrich Co. (NSDSECPLSHDGYCLHDGVCMYIEALDKYACNCVVGYIGERCQYRDLKWWELR; UniProt P01133 971-1023, looked up)”, the fluorescent focus formation entry in test [3] (50 ng/ml, 8 minutes, ERK2-mAG1-PB1 transient, none before addition) is recorded as “fluorescent foci were observed in multiple cells”; in test [3] (8 minutes after EGF addition, cells constitutively expressing ERK2-PB1-hmAG1 (FIG. 27)), “fluorescent foci indicating the homodimer formation of ERK2 were detected”.
For `CC[C@H](C(=O)N1CCCC[C@H]1C(=O)O[C@H](CCc1ccc(OC)c(OC)c1)c1cccc(OCC(=O)NCC(CNC(=O)COc2cccc([C@@H](CCc3ccc(OC)c(OC)c3)OC(=O)[C@@H]3CCCCN3C(=O)[C@@H](CC)c3cc(OC)c(OC)c(OC)c3)c2)CN(C)C)c1)c1cc(OC)c(OC)c(OC)c1` [B/B Homodimerizer], the fluorescent focus formation result in test [4] (38 minutes after the drug addition, none before addition) is given as “fluorescent foci were observed in multiple cells”; in test [4] (76 minutes after the addition), “many cells which exhibited distinctive fluorescent foci were observed”; in test [5] it was “fluorescent foci were formed only in a few cells”; in test [6], “fluorescent focus formations attributable to the addition of the drug”; in test [7] (500 nM, 90 minutes after the B/B Homodimerizer addition), “distinctive fluorescent foci were observed in multiple cells”; in test [8], “drug-addition dependent increases in fluorescent foci were observed”. Besides, the “fluorescence intensity relative to that before the addition” value in test [7] (when formation of fluorescent foci started to be observed immediately after the B/B Homodimerizer addition) came to 1.9 times.
